Experimental data: the NIST ThermoML archive (doi:10.1016/j.jct.2006.06.008)

Assay: xn = mol fraction of the nth substance listed
Details: 101 kPa, Liquid

C1CCCCC1 [cyclohexane] + CCCO
Details	mass density, 293.15 K [kg/m3]	mass density, 298.15 K [kg/m3]	mass density, 303.15 K [kg/m3]	speed of sound, 293.15 K [m/s]	speed of sound, 298.15 K [m/s]	speed of sound, 303.15 K [m/s]	viscosity, 293.15 K [mPa·s]	viscosity, 298.15 K [mPa·s]	viscosity, 303.15 K [mPa·s]
x1 = 0.0487	801.17	797.11	793.02	1222	1205	1187	2.079	1.842	1.645
x1 = 0.0993	798.82	794.71	790.56	1222	1204	1186	1.958	1.74	1.552
x1 = 0.1967	794.76	790.54	786.28	1223	1204	1185	1.735	1.544	1.379
x1 = 0.2993	791.11	786.78	782.41	1225	1205	1185	1.544	1.38	1.234
x1 = 0.4017	787.98	783.54	779.05	1228	1207	1186	1.391	1.249	1.124
x1 = 0.5071	785.25	780.71	776.12	1233	1211	1189	1.253	1.126	1.015
x1 = 0.6048	783.08	778.47	773.8	1238	1215	1193	1.135	1.026	0.937
x1 = 0.7036	781.23	776.55	771.82	1244	1221	1198	1.036	0.941	0.858
x1 = 0.8062	779.66	774.94	770.17	1252	1228	1204	0.98	0.895	0.822
x1 = 0.9053	778.68	773.93	769.14	1262	1237	1213	0.972	0.887	0.816
x1 = 0.9522	778.41	773.66	768.87	1268	1243	1219	0.969	0.892	0.81
x1 = 1	778.62	773.92	769.19	1279	1254	1230	0.968	0.887	0.816

C1CCCCC1 [cyclohexane] + CCO
Details	mass density, 293.15 K [kg/m3]	mass density, 298.15 K [kg/m3]	mass density, 303.15 K [kg/m3]	speed of sound, 293.15 K [m/s]	speed of sound, 298.15 K [m/s]	speed of sound, 303.15 K [m/s]	viscosity, 293.15 K [mPa·s]	viscosity, 298.15 K [mPa·s]	viscosity, 303.15 K [mPa·s]
x1 = 0.0473	787	782.65	778.29	1162	1144	1127	1.148	1.046	0.956
x1 = 0.096	784.97	780.6	776.2	1165	1147	1129	1.102	1.009	0.922
x1 = 0.2043	781.33	776.87	772.37	1174	1155	1135	1.051	0.954	0.875
x1 = 0.3028	779.4	774.86	770.28	1184	1164	1144	1.005	0.918	0.838
x1 = 0.3979	778.2	773.6	768.95	1195	1174	1153	0.978	0.893	0.818
x1 = 0.5027	777.4	772.73	768	1208	1186	1164	0.954	0.87	0.796
x1 = 0.5939	776.98	772.26	767.49	1219	1196	1174	0.934	0.853	0.781
x1 = 0.7051	776.79	772.03	767.22	1232	1209	1186	0.915	0.836	0.769
x1 = 0.8055	776.89	772.11	767.28	1245	1221	1197	0.908	0.833	0.769
x1 = 0.9041	777.3	772.5	767.8	1258	1235	1211	0.923	0.846	0.778
x1 = 0.9534	777.74	772.98	768.18	1267	1242	1218	0.941	0.862	0.793
x1 = 1	778.62	773.92	769.19	1279	1254	1230	0.968	0.887	0.816
